From patent US20060078622A1, “Pharmaceutical formulations containing microparticles or nanoparticles of a delivery agent” (priority 2004, published 2006)

How the values were obtained:
[1] = Particle size determination by laser diffraction (Malvern Mastersizer 2000); type: physicochemical
Protocol: The terms “diameter” and “median particle size” are generally used to refer to the dimensions of particles, micro-beads, and granules. The “median particle size” or “diameter” was determined as follows for Examples 8, 9, 10.
The Malvern Mastersizer 2000 determines particle size by laser diffraction and model fitting. A well-dispersed sample in any two-phase system (e.g., powders, suspensions, or emulsions) is introduced into the path of a He—Ne laser focused with a lens of a length suitable for particle sizes present in the sample. The scattering pattern of particles in the laser path is measured by an array of detectors, with each detector measuring data from a particular range of angles.
The Malvern apparatus assumes that the particles being measured are perfect spheres. For non-spherical particles the resulting particle size distribution may be different from those obtained by methods based on others principles. The electronic measurements will often have to be accompanied by microscopic investigation to determine the type of particles being investigated. For irregularly shaped particles, the particle size data obtained from Mastersizer 2000 will be interpreted as the diameter of an imaginary sphere that is equivalent in volume to the measured particle. (Note: d(0.1) is the size of particle for which 10% of the sample is below this size, d(0.5) is the size of particle for which 50% of the sample is below this size, and d(0.9) is the size of particle for which 90% of the sample is below this size.
Generally, this apparatus measures one dimension of a, e.g., particle as it travels past a laser; i.e., it measures the length of a straight line through the particle. […] However, a measurement is taken of a number of particles and a median diameter or size is calculated. Thus, “size” or “diameter” figures are estimates of the median “size” or “diameter” of particles. Alternatively, “diameter” or “size” was measured by a sieve method described in Example 1. “Diameter” should not be read to necessarily imply a spherical shape or a circular dimension, though in certain embodiments, e.g., particles may have rounded edges or generally spherical shapes.
(§1) SNAD was screened through a 35 mesh Tyler standard sieve. The SNAD was milled with a Glen Mills, Model S100 centrifugal ball mill (Clifton, N.J.) equipped with a 250 mL stainless steel grinding jar and 30 mm (440 c) diameter stainless steel balls was used. The process parameters investigated were (1) number of balls used, (2) duration of milling, (3) milling speed, and (4) milling jar total charge. A Malvern Mastersizer 2000 equipped with a Scirocco 2000 dry accessory was used for particle size determination. A Kratos XRD 6000 (version 4.1) X-ray powder diffractometer scanning over the 2θ range 5-40° 2θ was used for monitoring crystallinity changes. The diverging, scattering, and receiving slits were 1°, 1°, and 0.3 mm respectively. A Brinkmann 737 KF coulometer was used for moisture content determination while a Quantachrome Nova 3000 Series Surface Area Analyzer was used for specific surface area determination.

[2] = X-ray powder diffraction and Karl Fischer moisture content after milling; type: physicochemical; conditions: ball milled
Protocol: as §1, with “The diverging, scattering, and receiving slits were 1°, 1°, and 0.3 mm respectively.” left out

[3] = acid and salts; cited from earlier work
[4] = in vivo; cited from earlier work
[5] = ball milled, milling time of 120 minutes

O=C([O-])CCCCCCCCCNC(=O)c1ccccc1O.[Na+] [SNAD, monosodium salt of N-(10-[2-hydroxybenzoyl]-amino)decanoic acid]
particle size d(0.9) ([1]; ball milled at 300 rpm): 62.9 μm
particle size d(0.1) ([1]; ball milled, 2 balls): 1.1 μm
particle size d(0.5) ([1]; ball milled, 2 balls): 12.0 μm
particle size d(0.9) ([1]; ball milled, 2 balls): 154.3 μm
particle size d(0.1) [1, 5]: 2.0 μm
particle size d(0.5) [1, 5]: 15.4 μm
particle size d(0.9) [1, 5]: 62.9 μm
particle size d(0.1) ([1]; pre-screened (unmilled)): 1.6 μm
particle size d(0.5) ([1]; pre-screened (unmilled)): 10.5 μm
particle size d(0.9) ([1]; pre-screened (unmilled)): 314.9 μm
changes in moisture content on milling (Karl Fischer) [2]: no significant changes in moisture content
crystallinity changes on milling (powder X-ray diffraction) [2]: did not result in crystallinity changes

O=C(O)CCCCCCCNC(=O)c1cc(Cl)ccc1O [5 CNAC acid, N-(5-chlorosalicyloyl)-8-aminocaprylic acid]
water solubility [3]: very water soluble

O=C([O-])CCCCCCCNC(=O)c1ccccc1O.[Na+] [SNAC, monosodium salt of N-(8-[2-hydroxybenzoyl]-amino)caprylic acid]
particle size d(0.5) ([1]; micronized, 2 balls at 200 rpm for 120 minutes): 7.574 μm

O=C(O)CCCCCCCCCNC(=O)c1ccccc1O [SNAD acid, N-(10-[2-hydroxybenzoyl]-amino) decanoic acid]
absorbed by the gastro-intestinal tract [4]: greater than 90%
